Reference: patent publication US9814709B2, “Bruton's tyrosine kinase inhibitor” (HEFEI INSTITUTES OF PHYSICAL SCIENCE, CHINESE ACADEMY OF …, priority 2014, dated 2017)

Key:
Assay type in all cases: cell-based
AML cell line MOLM13 = experiment: Cancer cell growth, Cell Titer-Glo; details: Homo sapiens, MOLM-13; MOLM13, 72 hrs; read-out: Half inhibitory concentration IC50
Description: (§1) We further assessed the selectivity of Compound 1 to inhibit the proliferation of cancer cells, by testing the effect of Btk inhibitor on the growth of cancer cells. In the example, we used B-lymphoma cell Ramos, cervical cancer cells HeLa, prostate cancer cells DU145, RV-1 and C4-2, colon cancer cells HCT116, blood cancer cells K562, B-cell lymphoma cells U2932, diffuse large B-cell lymphoma cells OCI-LY10, diffuse histiocytic lymphoma cells SU-DHL-2, diffuse large B-cell lymphoma cells TMD8, human non-small cell lung cancer cells H1975 (expressing EGFR L858R/T790M double mutant gene), human lung adenocarcinoma cells A549 (expressing wild-type EGFR gene), human non-small cell lung cancer cells H460 (expressing wild-type EGFR gene), mantel cell lymphoma (MCL) cells Z-138, EB virus infected human peripheral lymphocyte cells JVM-2, MCL cells REC-1, leukemia cells AML-3, acute promyelocytic leukemia cell line NB-4(Lu+), MDS-RAEB (myelodysplastic syndrome-excessive blasts) cell line SKM-1 human leukemia cell Nomo-1, human B-cell leukemia cell line NALM6, human leukocyte leukemia cells HEL, human T-cell lymphoma cells PF-382, acute myelocytic leukemia (AML) cell line MOLM14, AML cell line MOLM13, human Burkitt's lymphoma cells Namalwa, mouse pro-B cells BaF3, all of where were purchased from ATCC. Also used were mouse TEL-EGFR-BaF3 (stably expressing TEL-EGFR activated kinase), mouse TEL-EGFR/T790-BaF3 cells (stably expressing TEL-EGFR-T790M activated mutant kinase), mouse TEL-EGFR/L858R-BaF3 cells (stably expressing TEL-EGFR-L858R activated mutant kinase), mouse TEL-EGFR/T790/L858R-BaF3 (stably expressing TEL-EGFR-T790M/L858R activated mutant kinase), mouse TEL-BMX-BaF3 cells (stably expressing TEL-BMX activated kinase), mouse TEL-JAK1-BaF3 cells (stably expressing TEL-JAK1 activated kinase), mouse TEL-JAK2-BaF3 cells (stably expressing TEL-JAK2 activated kinase), mouse TEL-JAK3-BaF3 cells (stably expressing TEL-JAK3 activated kinase), where were all established by our laboratory via the following method: the kinase domain sequences of human EGFR, BMX, JAK1, JAK2, JAK3 were amplified respectively by PCR, and these kinase were inserted into the MSCV-Puro vectors with N-terminal TEL segment (Clontech); if there was a mutation, the mutation of the corresponding site was conducted by Site-Directed Mutagenesis kit (Stratagene); the resultants were stably transfected into mouse BaF3 cells by the means of retrovirus, and the IL-3 growth factors were removed, and eventually the EGFR, BMX, JAK1, JAK2, JAK3-transferred protein dependent cell lines were obtained.
(§2) In the example, different concentrations (0.000508 μM, 0.00152 μM, 0.00457 μM, 0.0137 μM, 0.0411 μM, 0.123 μM, 0.370 μM, 1.11 μM, 3.33 μM, 10 μM) of Compound 1 and Compound 19 were added into above cells, and were incubated for 72 hrs. The number of viable cells was determined by quantitating ATP in viable cells using Cell Titer-Glo® (Promega, U.S.) chemiluminescence cell viability assay kit.

[1] = test system: acute myelocytic leukemia (AML) cell line MOLM14; experiment: Cancer cell growth, Cell Titer-Glo; details: Homo sapiens, MOLM-14; MOLM14, 72 hrs; read-out: Half inhibitory concentration IC50
Description: as §1, §2

[2] = test system: acute promyelocytic leukemia cell line NB-4(Lu+); experiment: Cancer cell growth, Cell Titer-Glo; details: 72 hrs, read-out: Half inhibitory concentration IC50
Description: as §1, §2

[3] = test system: cervical cancer cells HeLa; experiment: Cancer cell growth, Cell Titer-Glo; details: Homo sapiens, 72 hrs, read-out: Half inhibitory concentration IC50
Description: as §1, §2

[4] = test system: diffuse histiocytic lymphoma cells SU-DHL-2; experiment: Cancer cell growth, Cell Titer-Glo; details: Homo sapiens; SU-DHL-2, 72 hrs; read-out: Half inhibitory concentration IC50
Description: as §1, §2

[5] = test system: diffuse large B-cell lymphoma cells OCI-LY10; experiment: Cancer cell growth, Cell Titer-Glo; details: Homo sapiens; OCI-LY10, 72 hrs; read-out: Half inhibitory concentration IC50
Description: as §1, §2

[6] = test system: human B-cell leukemia cell line NALM6; experiment: Cancer cell growth, Cell Titer-Glo; details: NALM-6, NALM6, 72 hrs, read-out: Half inhibitory concentration IC50
Description: as §1, §2

[7] = test system: human leukemia cell Nomo-1; experiment: Cancer cell growth, Cell Titer-Glo; details: Nomo-1, 72 hrs, read-out: Half inhibitory concentration IC50
Description: as §1, §2

[8] = test system: human leukocyte leukemia cells HEL; experiment: Cancer cell growth, Cell Titer-Glo; details: 72 hrs, read-out: Half inhibitory concentration IC50
Description: as §1, §2

[9] = test system: human lung adenocarcinoma cells A549 (expressing wild-type EGFR gene); experiment: Cancer cell growth, Cell Titer-Glo; details: A549, 72 hrs, read-out: Half inhibitory concentration IC50
Description: as §1, §2

[10] = test system: human non-small cell lung cancer cells H460 (expressing wild-type EGFR gene); experiment: Cancer cell growth, Cell Titer-Glo; details: NCI-H460, H460, 72 hrs, read-out: Half inhibitory concentration IC50
Description: as §1, §2

leukemia cells AML-3 = experiment: Cancer cell growth, Cell Titer-Glo; details: AML3; AML-3, 72 hrs; read-out: Half inhibitory concentration IC50
Description: as §1, §2

[11] = test system: mantel cell lymphoma (MCL) cells Z-138; experiment: Cancer cell growth, Cell Titer-Glo; details: Homo sapiens; Z-138, 72 hrs; read-out: Half inhibitory concentration IC50
Description: as §1, §2

[12] = test system: prostate cancer cells DU145; experiment: Cancer cell growth, Cell Titer-Glo; details: Homo sapiens, DU-145; DU145, 72 hrs; read-out: Half inhibitory concentration IC50
Description: as §1, §2

BTK = BTK (Homo sapiens, UniProt Q06187); experiment: Phosphorylation of BTK in IL2-stimulated PBMC, Western Blot; parameters: endogenous in cells; host or cells: human peripheral blood mononuclear cells (PBMC); details: 3.5 hours, then 20 ng/mL IL2 30 min
Sequence of BTK (Q06187 whole entry): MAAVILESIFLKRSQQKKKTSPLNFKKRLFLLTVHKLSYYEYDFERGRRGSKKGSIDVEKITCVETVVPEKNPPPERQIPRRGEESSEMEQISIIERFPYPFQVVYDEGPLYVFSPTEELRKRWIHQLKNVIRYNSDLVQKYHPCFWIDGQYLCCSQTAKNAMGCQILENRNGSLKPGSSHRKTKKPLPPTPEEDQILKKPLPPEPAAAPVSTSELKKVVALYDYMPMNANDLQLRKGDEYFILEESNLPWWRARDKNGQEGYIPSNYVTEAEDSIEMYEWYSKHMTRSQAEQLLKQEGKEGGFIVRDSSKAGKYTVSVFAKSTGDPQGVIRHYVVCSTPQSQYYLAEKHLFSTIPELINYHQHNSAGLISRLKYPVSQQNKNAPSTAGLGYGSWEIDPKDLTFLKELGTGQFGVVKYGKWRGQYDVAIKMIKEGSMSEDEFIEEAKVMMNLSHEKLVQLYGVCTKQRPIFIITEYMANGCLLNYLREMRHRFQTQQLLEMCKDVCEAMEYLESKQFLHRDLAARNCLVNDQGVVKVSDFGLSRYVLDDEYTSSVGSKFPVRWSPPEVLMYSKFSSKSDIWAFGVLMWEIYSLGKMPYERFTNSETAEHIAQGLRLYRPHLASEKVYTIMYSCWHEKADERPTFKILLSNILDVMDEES
Experimental: In order to test the effect of Compound 1 on human cells, a peripheral blood mononuclear cell (PBMC) culture system with BTK signal being activated by in vitro stimulation was introduced. The phenomena occurred in the clinical patients were simulated by stimulating PBMC of a normal human with IL2 to activate the BTK signal. PBMC cells were seeded in 6-well plate and Compound 1 of different concentrations (0, 0.01, 0.1, 1 μM), 1 μM of PCI-32765 and 1 μM of Compound 19 were added; 3.5 hours later after the administration, the samples were stimulated with 20 ng/ML IL2 for 30 min and then were collected. Western Blot assay was performed. […] The negative control Compound 19 had no effect on the phosphorylation of BTK.

IC50 (AML cell line MOLM13) [µM] | IC50 [1] [µM] | IC50 [2] [µM] | IC50 [3] [µM] | IC50 [4] [µM] | IC50 [5] [µM] | IC50 [6] [µM] | IC50 [7] [µM] | IC50 [8] [µM] | IC50 [9] [µM] | IC50 [10] [µM] | IC50 (leukemia cells AML-3) [µM] | IC50 [11] [µM] | IC50 [12] [µM] | effect on phosphorylation of BTK in PBMCs (BTK; 0.01, 0.1, 1 μM, some dose-dependency) | SMILES | effect on phosphorylation of BTK in PBMCs (BTK; 1 μM)
0.59 | 1.5 | 3.7 | > 10 | 5.02 | > 10 | 1.17 | 4.9 | 1.8 | 3.76 | > 10 | 7.3 | 8.5 | > 10 | significantly inhibited | C=CC(=O)Nc1cc(-n2c(=O)ccc3cnc4ccc(-n5cccn5)cc4c32)ccc1C [Compound 1, N-(2-methyl-5-(2-oxo-9-(1H-pyrazol-1-yl)benzo[H][1,6]naphthyridin-1(2H)-yl)phenyl)acrylamide] | comparative to that of the positive control
> 10 | > 10 | > 10 | > 10 | > 10 | > 10 | > 10 | > 10 | > 10 | > 10 | > 10 | > 10 | > 10 | > 10 | – | CCC(=O)Nc1cc(-n2c(=O)ccc3cnc4ccc(-n5cccn5)cc4c32)ccc1C [Compound 19, N-(2-methyl-5-(2-oxo-9-(1H-pyrazol-1-yl)benzo[H][1,6]naphthyridin-1(2H)-yl)phenyl) propionamide] | no effect
